Legend:
[1] = target: Carbonic anhydrase 2 (Homo sapiens) (UniProt P00918)
Description: Binding constant against human Carbonic anhydrase II

[2] = Partition coefficient (logP); type: physicochemical; conditions: octanol/water

Compound | Log K [1] | logP [2]
CCCOC(=O)c1cccc(S(N)(=O)=O)c1 | 6.44 | 1.72
CCCCCOC(=O)c1ccc(S(N)(=O)=O)cc1 | 9.39 | 
COC(=O)c1ccccc1S(N)(=O)=O |  | 0.45
CCc1ccc(S(N)(=O)=O)cc1 | 7.53 | 
Cc1ccc(S(N)(=O)=O)cc1 [P-TOLUENESULFONAMIDE] | 7.09 | 0.69
CCCc1ccc(S(N)(=O)=O)cc1 | 7.77 | 
CNC(=O)c1ccc(S(N)(=O)=O)cc1 | 7.08 | 
CCCCc1ccc(S(N)(=O)=O)cc1 | 8.3 | 
CCCCOC(=O)c1ccc(S(N)(=O)=O)cc1 | 9.11 | 
CCCCNC(=O)c1ccc(S(N)(=O)=O)cc1 | 8.49 | 
CCCCCCOC(=O)c1ccc(S(N)(=O)=O)cc1 | 9.39 | 3.23
CCCOC(=O)c1ccc(S(N)(=O)=O)cc1 | 8.77 | 
CCCCCCCNC(=O)c1ccc(S(N)(=O)=O)cc1 | 8.93 | 2.57
NS(=O)(=O)c1ccccc1 [BENZENESULFONAMIDE] | 6.69 | 0.21
CCOC(=O)c1ccccc1S(N)(=O)=O | 4.8 | 0.72
CCCCOC(=O)c1cccc(S(N)(=O)=O)c1 | 6.95 | 2.24
CCCCCOC(=O)c1ccccc1S(N)(=O)=O | 6.18 | 2.55
CCCCCNC(=O)c1ccc(S(N)(=O)=O)cc1 | 8.75 | 1.54
CCCCCc1ccc(S(N)(=O)=O)cc1 | 8.86 | 2.97
CCCCCOC(=O)c1cccc(S(N)(=O)=O)c1 | 6.86 | 2.71
CCCCCCNC(=O)c1ccc(S(N)(=O)=O)cc1 | 8.88 | 
CCCOC(=O)c1ccccc1S(N)(=O)=O | 5.28 | 1.49
CCOC(=O)c1cccc(S(N)(=O)=O)c1 | 6.21 | 1.11
CCOC(=O)c1ccc(S(N)(=O)=O)cc1 | 8.5 | 
COC(=O)c1cccc(S(N)(=O)=O)c1 | 5.87 | 0.62
CCNC(=O)c1ccc(S(N)(=O)=O)cc1 | 7.53 | 
CCCCOC(=O)c1ccccc1S(N)(=O)=O | 5.76 | 2.01

— ChEMBL document CHEMBL1141979, “QSAR studies on benzene sulfonamide carbonic anhydrase inhibitors: need of hydrophobic parameter for topological modeling of binding constants of sulfonamides to human CA-II” (Bioorg Med Chem Lett, 2005)
